Consider two molecules from paper PMC7092418 (Genes and Environment, 2020).

Series [1] concerns S. typhimurium YG9028. The settings on record: Salmonella typhimurium.
For series [2], the system named is rat. The settings on record: in vivo; cited from earlier work.

Take `COS(C)(=O)=O` [MMS, Methylmethane sulfonate]: in series [1], the Specific mutagenicity was found to be 0.205 revertants/plate/nmole.

`[N-]=[N+]=[N-].[Na+]` [sodium azide]: the Carcinogenicity entry in series [2] is reported as “non-carcinogenic”.
